Measurements reported in US20240335447A1, “WEE1 INHIBITOR FOR CANCER” (Recurium IP Holdings, LLC, priority 2021, published 2024).

Experiments:
SW837 cells [1] = assay: CellTiter-Glo (CTG) cell viability assay, SW837 cells; assay type: cell-based; conditions: Homo sapiens, 72 h, sotorasib 12 nM, Compound (A) 1000 nM, single agent or combination of both
Description: (§1) 20,000 H23 cells were incubated in a 96 well plate as a triplicate with 40 nM of sotorasib or 120 nM of Compound (A) as a single agent or the combination of both for 72 h (FIG. 2). 20,000 MiaPaca-2 cells were incubated in a 96 well plate as a triplicate with 350 nM of sotorasib or 1000 nM of Compound (A) as a single agent or the combination of both for 72 h (FIG. 3). 20,000 H358 cells were incubated in a 96 well plate as a triplicate with 10 nM of sotorasib or 300 nM of Compound (A) as a single agent or the combination of both for 72 h (FIG. 4). 20,000 SW837 cells were incubated in a 96 well plate as a triplicate with 12 nM of sotorasib or 1000 nM of Compound (A) as a single agent or the combination of both for 72 h (FIG. 5). For each cell line, the cell viability was assessed using a CellTiter-Glo® (CTG) assay.

H358 cells = assay: CellTiter-Glo (CTG) cell viability assay, H358 cells; assay type: cell-based; conditions: Homo sapiens, NCI-H358, 72 h, sotorasib 10 nM, Compound (A) 300 nM, single agent or combination of both
Description: as §1

MiaPaca-2 cells [2] = assay: MiaPaca-2 subcutaneous xenograft, tumor growth; assay type: in vivo, Mice; conditions: MiaPaca-2 xenograft, Compound (A) 80 mg/kg p.o. qd x21, sotorasib 10 mg/kg or MRTX849 10 mg/kg p.o.
Description: (§2) Tumor volumes were evaluated twice per week to calculate tumor volume over time, and mice were weighed twice per week as a surrogate for signs of toxicity. Tumor growth inhibition (TGI) was calculated using the following equation TGI=(1−(Td−T0)/(Cd−C0))×100%. Td and Cd are the mean tumor volumes of the treated and control animals, and T0 and C0 are the mean tumor volumes of the treated and control animals at the start of the experiment.

SW1463 cells = assay: SW1463 subcutaneous xenograft, tumor growth; assay type: in vivo, Mice; conditions: Compound (A) 80 mg/kg p.o. qd x21, sotorasib 30 mg/kg p.o.
Description: Mice were inoculated with SW1463 cells subcutaneously on the right flank with the single cell suspension of 95% viable tumor cells (1×10^7) in 100 μL L-15 Matrigel mixture (1:1 ratio) without serum for the tumor development. The treatment was started when the mean tumor size reached approximately 200 mm^3 (with individual tumor range between 180-220 mm^3). Animals were randomly distributed into treatment groups of 8 animals each and dosed with vehicle (top line indicated with circles) and indicated compounds at indicated dosage and frequency shown in FIG. 11 and Table 10. In FIG. 11, single agent activity was shown with Compound (A) and sotorasib at the indicated doses, and the bottom line is Compound (A) 80 mg/kg p.o. qd×21+sotorasib 30 mg/kg p.o. pd×21.
as §2, with “experiment. The tumor regression was defined as (1−(Td/T0))×100% tumor volume (TV) decrease (Td terminal TV divided by T0 initial TV). […]” for “experiment.”

MiaPaca-2 cells [3] = assay: CellTiter-Glo (CTG) cell viability assay, MiaPaca-2 cells; assay type: cell-based; conditions: Homo sapiens, MIA PaCa-2, 72 h, sotorasib 350 nM, Compound (A) 1000 nM, single agent or combination of both
Description: as §1

H23 cells = assay: CellTiter-Glo (CTG) cell viability assay, H23 cells; assay type: cell-based; conditions: Homo sapiens, NCI-H23, 72 h, sotorasib 40 nM, Compound (A) 120 nM, single agent or combination of both
Description: as §1

SW837 cells [4] = assay: SW837 subcutaneous xenograft, tumor growth; assay type: in vivo, Mice; conditions: Compound (A) 60 mg/kg p.o. qd x18, sotorasib 30 mg/kg p.o.
Description: Mice were inoculated with SW837 cells subcutaneously on the right flank with the single cell suspension of 95% viable tumor cells (1×10^7) in 100 μL L-15 Matrigel mixture (1:1 ratio) without serum for the tumor development. The treatment was started when the mean tumor size reached approximately 200 mm^3 (with individual tumor range between 180-220 mm^3). Animals were randomly distributed into treatment groups of 8 animals each and dosed with vehicle (top line indicated with circles) and indicated compounds at indicated dosage and frequency shown in FIG. 6 and Table 3. In FIG. 6, single agent activity was shown with Compound (A) and sotorasib at the indicated doses. In addition, the bottom line is Compound (A) 60 mg/kg p.o. qd×18+sotorasib 30 mg/kg p.o. pd×18. […] Tumor volumes were evaluated twice per week to calculate tumor volume over time, and mice were weighed twice per week as a surrogate for signs of toxicity. Tumor growth inhibition (TGI) was calculated using the following equation TGI=(1−(Td−T0)/(Cd−C0))×100%. Td and Cd are the mean tumor volumes of the treated and control animals, and T0 and C0 are the mean tumor volumes of the treated and control animals at the start of the experiment. The tumor regression was defined as (1−(Td/T0))×100% tumor volume (TV) decrease (Td terminal TV divided by T0 initial TV). […]

LoVo tumor cells = assay: colorectal cancer LoVo xenograft model (KRAS mutant); assay type: in vivo, BALB/c nude mice
Description: (§3) The antitumor activity of Compound (A) was assessed using the colorectal cancer LoVo xenograft model (KRAS mutant) with BALB/c nude mice. Each mouse was inoculated on the right flank subcutaneously with 5×10^6/100 μL LoVo tumor cells for the tumor development. When the mean tumor size reached 207 mm^3, animals were randomized into 4 groups (10 animals/group), and the treatments were initiated according to Table 4.
(§4) Study endpoints included daily body weight, clinical observations and tumor volume.

SW1116 tumor cells = assay: colorectal cancer SW1116 xenograft model (TP53 mutant; KRAS mutant); assay type: in vivo
Description: as §3, with “SW1116” for “LoVo”, “(TP53 mutant; KRAS” for “(KRAS”, “NOD/SCID” for “BALB/c”, “1×10^7 (+High Concentration Matrigel)/200” for “5×10^6/100”, “229” for “207”, “6.” for “4.”
as §4

SMILES	inhibition at 0.012 µM (SW837 cells [1]) [%]	inhibition at 0.01 µM (H358 cells) [%]	TGI % (DAY 21) (MiaPaca-2 cells [2]) [%]	TGI % (DAY 21) (SW1463 cells) [%]	inhibition at 0.35 µM (MiaPaca-2 cells [3]) [%]	inhibition at 0.04 µM (H23 cells) [%]	TGI % (DAY 18) (SW837 cells [4]) [%]	inhibition at 1 µM (SW837 cells [1]) [%]	inhibition at 0.3 µM (H358 cells) [%]	TGI (%) (LoVo tumor cells; 40 mg/kg/day p.o. qd x 28)	TGI (%) (LoVo tumor cells; 60 mg/kg/day p.o. qd x 28)	TGI (%) (LoVo tumor cells; 80 mg/kg/day p.o. qd x 28)	mean body weights (LoVo tumor cells; 40, 60, 80 mg/kg/day)	clinical observations (LoVo tumor cells; any dose group (40, 60, 80 mg/kg/day))	TGI (%) (SW1116 tumor cells; 40 mg/kg/day p.o. qd x 28)	TGI (%) (SW1116 tumor cells; 60 mg/kg/day p.o. qd x 28)	TGI (%) (SW1116 tumor cells; 80 mg/kg/day p.o. qd x 28)	tolerability (SW1116 tumor cells; 40, 60, 80 mg/kg/day)	inhibition at 1 µM (MiaPaca-2 cells [3]) [%]	inhibition at 0.12 µM (H23 cells) [%]
C=CC(=O)N1CCN(c2nc(=O)n(-c3c(C)ccnc3C(C)C)c3nc(-c4c(O)cccc4F)c(F)cc23)[C@@H](C)C1 [sotorasib, reference compound]	20.7	24	81	73	39	27.8	80													
C=CCn1c(=O)c2cnc(Nc3ccc(N4CCN(C)CC4)cc3)nc2n1-c1ccc2c(n1)[C@@](O)(CC)CC2 [Compound (A)]			50	57			72	28.8	31.5	21.4	32.1	70.3	no significant impact of treatments on mean body weights	no adverse clinical observations	49.0	75.1	98.5	generally well tolerated for the majority of study animals	47	16.5
